We go through 23 compounds from patent publication US11427548B2 (Arvinas Operations, Inc., priority 2015, dated 2022).

As a reminder, the Dmax is the greatest extent of degradation seen. As a reminder, the DC50 is the concentration giving 50% degradation.

Like-named read-outs stand apart in the source and are kept apart here. Some results are limits rather than exact numbers.

The target of the assay is T1, Androgen Receptor (Homo sapiens, UniProt P10275).
T1 construct: endogenous in cells; host or cells: VCaP cells
T1 sequence (P10275 1-920): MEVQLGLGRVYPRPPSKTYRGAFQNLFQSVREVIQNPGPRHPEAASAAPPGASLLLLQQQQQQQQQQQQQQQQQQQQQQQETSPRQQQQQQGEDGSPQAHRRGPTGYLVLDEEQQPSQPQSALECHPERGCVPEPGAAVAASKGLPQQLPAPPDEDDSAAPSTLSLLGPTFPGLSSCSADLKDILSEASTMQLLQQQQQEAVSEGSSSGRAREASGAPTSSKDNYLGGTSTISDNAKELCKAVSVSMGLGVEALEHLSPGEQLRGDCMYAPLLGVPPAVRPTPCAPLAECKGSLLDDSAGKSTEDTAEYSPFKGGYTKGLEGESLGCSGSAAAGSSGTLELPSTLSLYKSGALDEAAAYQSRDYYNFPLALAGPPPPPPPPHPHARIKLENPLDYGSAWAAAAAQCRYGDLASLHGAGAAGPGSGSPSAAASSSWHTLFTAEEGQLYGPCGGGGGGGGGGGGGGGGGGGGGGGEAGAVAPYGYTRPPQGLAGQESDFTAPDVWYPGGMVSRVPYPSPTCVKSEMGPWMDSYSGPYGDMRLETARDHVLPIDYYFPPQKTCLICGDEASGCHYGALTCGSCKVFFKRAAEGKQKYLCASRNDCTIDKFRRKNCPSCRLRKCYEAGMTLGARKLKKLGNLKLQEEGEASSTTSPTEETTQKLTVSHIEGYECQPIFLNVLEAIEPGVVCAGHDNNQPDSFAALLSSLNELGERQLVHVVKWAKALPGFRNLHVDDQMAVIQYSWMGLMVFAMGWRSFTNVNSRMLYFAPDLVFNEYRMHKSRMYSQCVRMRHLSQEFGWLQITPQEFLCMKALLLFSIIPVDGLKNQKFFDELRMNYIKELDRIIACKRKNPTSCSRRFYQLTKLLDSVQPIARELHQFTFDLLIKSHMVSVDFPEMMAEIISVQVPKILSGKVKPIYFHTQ
Put plainly: Androgen Receptor ELISA assay (PathScan AR ELISA) in VCaP cells: AR degradation, Dmax and DC50. The class given is cell-based. The procedure, abridged: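 VCaP cells, 30,000/well, grown ≥3 days in phenol red-free RPMI with 5% charcoal-stripped FBS; compound added in 0.1% DMSO with 0.1 nM R1881, 7 half-log doses, 24 h. Lysate AR quantified by PathScan sandwich ELISA, HRP/TMB read at 450 nm, giving DC50 and Dmax.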
In general terms: An ELISA detects its analyte on a solid surface through an enzyme-linked reagent.

The mark [1] stands for this setting: read-out: VCaP DC50; VCaP cells; Table 34.
[2] abbreviates: VCaP cells; Table 34; read-out: VCaP DC50.
Where [3] appears, read: VCaP, VCaP cells; Table 34; read-out: VCaP Dmax (%).

For `Cc1ncsc1-c1ccc(CNC(=O)[C@@H]2C[C@@H](O)CN2C(=O)[C@@H](NC(=O)COc2ccc3cc(COc4ccc(N5C(=S)N(c6ccc(C#N)c(C(F)(F)F)c6)C(=O)C5(C)C)cc4)ccc3c2)C(C)(C)C)cc1` [Example 378], the Dmax (VCaP, read-out: VCaP Dmax (%)) was in the range of 51 to 70%. Further, the DC50 under setting [1] is below 0.05 µM.

With `Cc1ncsc1-c1ccc(CNC(=O)C2C[C@@H](O)CN2C(=O)[C@@H](NC(=O)CN(C)c2ccc(OCCOc3ccc(N4C(=S)N(c5ccc(C#N)c(C(F)(F)F)c5)C(=O)C4(C)C)cc3)cc2)C(C)(C)C)cc1` (some centres unmarked) [Example 379], the Dmax (VCaP, read-out: VCaP Dmax (%)) fell in the range of 51 to 70%. Moreover, the DC50 under setting [1] is below 0.05 µM.

For `Cc1ncsc1-c1ccc(CNC(=O)[C@H]2C[C@@H](O)CN2C(=O)[C@@H](NC(=O)[C@@H](C)Oc2ccc(OCCOc3ccc(N4C(=S)N(c5ccc(C#N)c(C(F)(F)F)c5)C(=O)C4(C)C)cc3)cc2)C(C)(C)C)cc1` [Example 381], under “VCaP, read-out: VCaP Dmax (%)”, the greatest degradation seen (Dmax) is 26 to 50%. Further, the DC50 under setting [1] was below 0.05 µM.

As to `Cc1ncsc1-c1ccc(CNC(=O)[C@H]2C[C@@H](O)CN2C(=O)[C@@H](NC(=O)[C@H](C)Oc2ccc(OCCOc3ccc(N4C(=S)N(c5ccc(C#N)c(C(F)(F)F)c5)C(=O)C4(C)C)cc3)cc2)C(C)(C)C)cc1` [Example 382], the Dmax (VCaP, read-out: VCaP Dmax (%)) fell in the range of 26 to 50%. Further, under setting [1], the DC50 is below 0.05 µM.

In the case of `Cc1ncoc1-c1ccc(CNC(=O)[C@@H]2C[C@@H](O)CN2C(=O)[C@@H](NC(=O)COCCCCOc2ccc(Oc3ccc(N4C(=S)N(c5cnc(C#N)c(C(F)(F)F)c5)C(=O)C4(C)C)cc3)cc2)C(C)(C)C)cc1` [Example 383], the half-maximal degradation concentration (DC50) under setting [2] was below 0.05 µM. Further, under setting [3], the Dmax was above 71%.

Turning to `Cc1ncsc1-c1ccc(CNC(=O)[C@@H]2C[C@@H](O)CN2C(=O)[C@@H](NC(=O)COCCCCOc2ccc(Oc3ccc(N4C(=S)N(c5cnc(C#N)c(C(F)(F)F)c5)C(=O)C4(C)C)cc3)cc2)C(C)(C)C)cc1` [Example 384], the DC50 under setting [2] was below 0.05 µM. The Dmax under setting [3] is above 71%.

Regarding `Cc1ncoc1-c1ccc(CNC(=O)[C@@H]2C[C@@H](O)CN2C(=O)[C@@H](NC(=O)COCCCOc2ccc(Oc3ccc(N4C(=S)N(c5cnc(C#N)c(C(F)(F)F)c5)C(=O)C4(C)C)cc3)cc2)C(C)(C)C)cc1` [Example 386], the DC50 under setting [2] was below 0.05 µM. Also, the Dmax under setting [3] was above 71%.

For `Cc1ncsc1-c1ccc(CNC(=O)[C@@H]2C[C@@H](O)CN2C(=O)[C@@H](NC(=O)COCCCOc2ccc(C(=O)N[C@H]3C(C)(C)[C@H](Oc4ccc(C#N)c(Cl)c4)C3(C)C)cc2)C(C)(C)C)cc1` [Example 387], under setting [3], the Dmax was below 25%.

Consider `Cc1ncsc1-c1ccc([C@H](C)NC(=O)[C@@H]2C[C@@H](O)CN2C(=O)[C@@H](NC(=O)COCC#CCOc2ccc(C(=O)N[C@H]3C(C)(C)[C@H](Oc4ccc(C#N)c(Cl)c4)C3(C)C)cc2)C(C)(C)C)cc1` [Example 388], for which, under setting [2], the DC50 is below 0.05 µM. For the same compound, the Dmax under setting [3] is above 71%.

With `Cc1ncoc1-c1ccc([C@H](C)NC(=O)[C@@H]2C[C@@H](O)CN2C(=O)[C@@H](NC(=O)COCCCCNc2ccc(-c3ccc(N4C(=S)N(c5cnc(C#N)c(C(F)(F)F)c5)C(=O)C4(C)C)cc3)cc2)C(C)(C)C)cc1` [Example 390], the DC50 under setting [2] is below 0.05 µM. The Dmax under setting [3] is 51 to 70%.

In the case of `Cc1ncsc1-c1ccc(CNC(=O)[C@@H]2C[C@@H](O)CN2C(=O)[C@@H](NC(=O)COCCCCNc2ccc(-c3ccc(N4C(=S)N(c5cnc(C#N)c(C(F)(F)F)c5)C(=O)C4(C)C)cc3)cc2)C(C)(C)C)cc1` [Example 391], the DC50 under setting [2] is below 0.05 µM. Also, under setting [3], the Dmax was 51 to 70%.

For the compound `Cc1ncsc1-c1ccc(CNC(=O)[C@@H]2C[C@@H](O)CN2C(=O)[C@@H](NC(=O)CNC(=O)CCCOc2ccc(C(=O)N[C@H]3C(C)(C)[C@H](Oc4ccc(C#N)c(Cl)c4)C3(C)C)cc2)C(C)(C)C)cc1` [Example 393], under setting [2], the DC50 is below 0.05 µM. Also, the Dmax under setting [3] lay in the range of 51 to 70%.

For `Cc1ncsc1-c1ccc(CNC(=O)[C@@H]2C[C@@H](O)CN2C(=O)C(C(C)C)n2cccc(OCCCCOc3ccc(-c4ccc(N5C(=S)N(c6ccc(C#N)c(C(F)(F)F)c6)C(=O)C5(C)C)cc4)cc3)c2=O)cc1` (some centres unmarked) [Example 395], the Dmax (VCaP, read-out: VCaP Dmax (%)) was below 25%.

Turning to `Cc1ncsc1-c1ccc(CNC(=O)[C@@H]2C[C@@H](O)CN2C(=O)[C@@H](NC(=O)COCCCCNC(=O)c2ccc(C(=O)N[C@H]3C(C)(C)[C@H](Oc4ccc(C#N)c(Cl)c4)C3(C)C)cc2)C(C)(C)C)cc1` [Example 398], under setting [2], the half-maximal degradation concentration (DC50) was below 0.05 µM. The Dmax under setting [3] was 26 to 50%.

For the compound `Cc1ncoc1-c1ccc(CNC(=O)[C@@H]2C[C@@H](O)CN2C(=O)[C@@H](NC(=O)COCCCCOc2ccc(-c3ccc(N4C(=S)N(c5ccc(C#N)c(C(F)(F)F)c5)C(=O)C4(C)C)cc3F)cc2)C(C)(C)C)cc1` [Example 399], the Dmax (VCaP, read-out: VCaP Dmax (%)) is above 71%. Further, under setting [1], the DC50 was below 0.05 µM.

On to `Cc1ncsc1-c1ccc(CNC(=O)[C@@H]2C[C@@H](O)CN2C(=O)[C@@H](NC(=O)COCCCCOc2ccc(-c3ccc(N4C(=S)N(c5ccc(C#N)c(C(F)(F)F)c5)C(=O)C4(C)C)cc3F)cc2)C(C)(C)C)cc1` [Example 400], for which the Dmax (VCaP, read-out: VCaP Dmax (%)) is above 71%. The DC50 under setting [1] is below 0.05 µM.

For `Cc1ncsc1-c1ccc([C@H](C)NC(=O)[C@@H]2C[C@@H](O)CN2C(=O)[C@@H](NC(=O)COCCCCOc2ccc(-c3ccc(N4C(=S)N(c5ccc(C#N)c(C(F)(F)F)c5)C(=O)C4(C)C)cn3)cn2)C(C)(C)C)cc1` [Example 401], the Dmax (VCaP, read-out: VCaP Dmax (%)) was above 71%. The DC50 under setting [1] was below 0.05 µM.

Turning to `Cc1ncoc1-c1ccc(CNC(=O)[C@@H]2C[C@@H](O)CN2C(=O)[C@@H](NC(=O)COCCCNC(=O)c2ccc(-c3ccc(N4C(=S)N(c5ccc(C#N)c(C(F)(F)F)c5)C(=O)C4(C)C)cc3)cc2)C(C)(C)C)cc1` [Example 402], the Dmax (VCaP, read-out: VCaP Dmax (%)) fell in the range of 51 to 70%. Also, under setting [1], the DC50 is below 0.05 µM.

Consider `Cc1ncsc1-c1ccc(CNC(=O)[C@@H]2C[C@@H](O)CN2C(=O)[C@@H](NC(=O)COCCCCOc2ccc(-c3ccc(N4C(=S)N(c5ccc(C#N)c(C(F)(F)F)c5)C(=O)C4(C)C)cc3)c(O)c2)C(C)(C)C)cc1` [Example 403], for which the Dmax (VCaP, read-out: VCaP Dmax (%)) is 51 to 70%. Under setting [1], the DC50 was below 0.05 µM.

On to `Cc1ncsc1-c1ccc(CNC(=O)[C@@H]2C[C@@H](O)CN2C(=O)[C@@H](NC(=O)COCCC2CCN(c3ccc(C(=O)N[C@H]4C(C)(C)[C@H](Oc5ccc(C#N)c(Cl)c5)C4(C)C)cc3)CC2)C(C)(C)C)cc1` [Example 404], for which the DC50 under setting [2] was below 0.05 µM. In addition, the Dmax under setting [3] is above 71%.

For the compound `Cc1ncsc1-c1ccc(CNC(=O)[C@@H]2C[C@@H](O)CN2C(=O)[C@@H](NC(=O)CO[C@H](C)c2ccc(Oc3ccc(C(=O)N[C@H]4C(C)(C)[C@H](Oc5ccc(C#N)c(Cl)c5)C4(C)C)cc3)cc2)C(C)(C)C)cc1` [Example 405], the DC50 under setting [2] was below 0.05 µM. Moreover, under setting [3], the Dmax is above 71%.

Take `Cc1ncsc1-c1ccc(CNC(=O)[C@@H]2C[C@@H](O)CN2C(=O)[C@@H](NC(=O)CO[C@@H](C)c2ccc(Oc3ccc(C(=O)N[C@H]4C(C)(C)[C@H](Oc5ccc(C#N)c(Cl)c5)C4(C)C)cc3)cc2)C(C)(C)C)cc1` [Example 406]: the DC50 under setting [2] was below 0.05 µM. For the same compound, the Dmax under setting [3] was above 71%.

As for `CC(C)(C)[C@H](NC(=O)COCCCCOc1ccc(C(=O)N[C@H]2C(C)(C)[C@H](Oc3ccc(C#N)c(Cl)c3)C2(C)C)cc1)C(=O)N1C[C@H](O)C[C@H]1C(=O)NCc1ccc(-c2ccccc2)cc1` [Example 407], the DC50 under setting [2] was below 0.05 µM. In addition, the Dmax under setting [3] was in the range of 51 to 70%.
